This passage reports IC50 results from patent publication US12570675B2, “Boronic acid compounds” (LG CHEM, LTD., priority 2020, dated 2026).

The target of this assay is Proteasome chymotrypsin-like activity (S26 protein from RPMI8226 cells) (Homo sapiens, UniProt P28074). It is filed as biochemical. Conditions: S26 protein from RPMI8226 cell extract 2 ug/well, substrate 20 uM, 37° C., 90 minutes; read-out: Proteasome chymotrypsin-like activity inhibition IC50. The method, then:
The abilities to inhibit the proteasome activity of the compounds described in the Examples of the present invention and boronic acid drugs were evaluated as follows.
RPMI8226 cells, which is a multiple myeloma cell line, were cultured and then separated by a centrifuge, and washed twice with phosphate buffered saline (PBS). 20 mM of a tris-HCl (pH 8.0) buffer solution was added to the washed cells, and the cells were disrupted by a homogenizer and centrifuged to obtain S26 protein from the supernatant. Suc-Leu-Leu-Val-Tyr-AMC, for a fluorogenic substrate for the chymotrypsin-like activity of the proteasome, and Z-Leu-Leu-Glu-AMC, for a fluorogenic substrate for the caspase-like activity, were purchased from Calbiochem, EMD Millipore and used. Into each well of a 96-well plate (opaque, black round bottom), 20 ul of the S26 protein (final RPMI8226 cell extract concentration: 2 ug/well), 10 ul of S26 proteasome inhibitor serially diluted from 10 uM (final DMSO concentration: 0.5%), and 20 ul of the fluorogenic substrate for the proteasome chymotrypsin-like or caspase-like activity (final concentration: 20 uM) were added and mixed and allowed to react in a 37° C. incubator for 90 minutes. The fluorescence of the fluorogenic substrate was measured by FlexStation II Fluorometer (Molecular Devices). The fluorescence inhibited by the compound diluted at each concentration was measured as the relative percentage value for the amount obtained from the treatment only with the S26 protein and the fluorogenic substrate. IC50 (inhibitory concentration 50) was expressed in terms of a concentration that inhibits 50% of the maximum fluorescence induced by the fluorogenic substrate.

Structures are written as SMILES. Some results are limits rather than exact numbers.

Chain of Proteasome chymotrypsin-like activity (S26 protein from RPMI8226 cells) (P28074 60-263 limits assumed): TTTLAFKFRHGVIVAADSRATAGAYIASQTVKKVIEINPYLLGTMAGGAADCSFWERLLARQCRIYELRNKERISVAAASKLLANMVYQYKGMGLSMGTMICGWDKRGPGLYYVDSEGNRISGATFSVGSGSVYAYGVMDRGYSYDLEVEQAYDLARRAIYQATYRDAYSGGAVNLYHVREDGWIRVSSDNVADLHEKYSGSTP

`CC(C)C[C@H](NC(=O)C1CC(CNC(=O)Cc2ccccc2)=NO1)B(O)O` (stereo partly drawn) [Example 79, ((1R)-3-methyl-1-(3-((2-phenylacetamido)methyl)-4,5-dihydroisoxazol-5-carboxamido)butyl)boronic acid]: the IC50 is below 100 nM. To `CC(C)C[C@H](NC(=O)C1CC(c2ccc(OC(F)(F)F)cc2)=NO1)B(O)O` (stereo partly drawn) [Example 38, ((1R)-3-methyl-1-(3-(4-(trifluoromethoxy)phenyl)-4,5-dihydroisoxazol-5-carboxamido)butyl)boronic acid] belongs below 500 nM. The same measure for `CC(C)C[C@H](NC(=O)C12CCCC1C(CNC(=O)c1cccn3ccnc13)=NO2)B(O)O` (stereo partly drawn) [Example 199, ((1R)-1-(3-((imidazo[1,2-a]pyridin-8-carboxamido)methyl)-3a,5,6,6a-tetrahydro-4H-cyclopenta[d]isoxazol-6a-carboxamido)-3-methylbutyl)boronic acid]: below 1000 nM; for `CC(C)C[C@H](NC(=O)C1(Cc2ccccc2)CC(COCc2cccc(Br)c2)=NO1)B(O)O` (stereo partly drawn) [Example 52, ((1R)-1-(5-benzyl-3-(((3-bromobenzyl)oxy)methyl)-4,5-dihydroisoxazol-5-carboxamido)-3-methylbutyl)boronic acid]: below 10 nM. The same measure for `COc1cccc(CC2(C(=O)N[C@@H](CC(C)C)B(O)O)CC(CNC(=O)c3cc(C)nn3C(C)C)=NO2)c1` (stereo partly drawn) [Example 232, ((1R)-1-(3-((1-isopropyl-3-methyl-1H-pyrazol-5-carboxamido)methyl)-5-(3-methoxybenzyl)-4,5-dihydroisoxazol-5-carboxamido)-3-methylbutyl)boronic acid]: below 10 nM; for `CC(C)C[C@H](NC(=O)C1CC(c2ccc(-c3cccnc3)cc2)=NO1)B(O)O` (stereo partly drawn) [Example 31, ((1R)-3-methyl-1-(3-(4-(pyridin-3-yl)phenyl)-4,5-dihydroisoxazol-5-carboxamido)butyl)boronic acid]: below 50 nM. Turning to `O=C(NCC1=NOC(Cc2ccccc2)(C(=O)N[C@@H](Cc2ccccc2)B(O)O)C1)c1cc(Cl)ccc1Cl` (stereo partly drawn) [Example 296, ((1R)-1-(5-benzyl-3-((2,5-dichlorobenzamido)methyl)-4,5-dihydroisoxazol-5-carboxamido)-2-phenylethyl)boronic acid], the IC50 is below 10 nM. To `CC(C)C[C@H](NC(=O)[C@]1(Cc2ccccc2)CC(c2ccccc2)=NO1)B(O)O` [Example 7, ((R)-1-((S)-5-benzyl-3-phenyl-4,5-dihydroisoxazol-5-carboxamido)-3-methylbutyl)boronic acid] belongs below 500 nM; to `N#Cc1cccc(COCC2=NOC(Cc3ccccc3)(C(=O)N[C@@H](Cc3ccccc3)B(O)O)C2)c1` (stereo partly drawn) [Example 265, ((1R)-1-(5-benzyl-3-(((3-cyanobenzyl)oxy)methyl)-4,5-dihydroisoxazol-5-carboxamido)-2-phenylethyl)boronic acid], below 10 nM. To `CC(C)C[C@H](NC(=O)C1CC(c2cnccn2)=NO1)B(O)O` (stereo partly drawn) [Example 2, ((1R)-3-methyl-1-(3-(pyrazin-2-yl)-4,5-dihydroisoxazol-5-carboxamido)butyl)boronic acid] belongs below 1000 nM. To `CC(C)C[C@H](NC(=O)C1(Cc2ccccc2)CC(CNC(=O)Cc2ccccc2)=NO1)B(O)O` (stereo partly drawn) [Example 109, ((1R)-1-(5-benzyl-3-((2-phenylacetamido)methyl)-4,5-dihydroisoxazol-5-carboxamido)-3-methylbutyl)boronic acid] belongs below 10 nM; to `COc1cccc(CC2(C(=O)N[C@@H](CC(C)C)B(O)O)CC(CNC(=O)c3c(Cl)c(C)nn3C(C)C)=NO2)c1` (stereo partly drawn) [Example 233, ((1R)-1-(3-((4-chloro-1-isopropyl-3-methyl-1H-pyrazol-5-carboxamido)methyl)-5-(3-methoxybenzyl)-4,5-dihydroisoxazol-5-carboxamido)-3-methylbutyl)boronic acid], below 10 nM. For the compound `COc1ccc(C(=O)NCC2=NOC(Cc3ccccc3)(C(=O)N[C@@H](Cc3ccccc3)B(O)O)C2)cc1` (stereo partly drawn) [Example 283, ((1R)-1-(5-benzyl-3-((4-methoxybenzamido)methyl)-4,5-dihydroisoxazol-5-carboxamido)-2-phenylethyl)boronic acid], the IC50 was below 10 nM. With `Cc1nocc1C(=O)NCC1=NOC(Cc2ccccc2)(C(=O)N[C@@H](CC(C)C)B(O)O)C1` (stereo partly drawn) [Example 120, ((1R)-1-(5-benzyl-3-((3-methylisoxazol-4-carboxamido)methyl)-4,5-dihydroisoxazol-5-carboxamido)-3-methylbutyl)boronic acid], the IC50 was below 10 nM.

With `CC(C)C[C@H](NC(=O)C1(Cc2ccccc2)CC(CNC(=O)c2cccc(-c3ccccc3)n2)=NO1)B(O)O` (stereo partly drawn) [Example 96, ((1R)-1-(5-benzyl-3-((6-phenylpicolinamido)methyl)-4,5-dihydroisoxazol-5-carboxamido)-3-methylbutyl)boronic acid], the IC50 was below 10 nM.

`CC(C)C[C@H](NC(=O)C1CC(c2ccc3ncccc3c2)=NO1)B(O)O` (stereo partly drawn) [Example 30, ((1R)-3-methyl-1-(3-(quinolin-6-yl)-4,5-dihydroisoxazol-5-carboxamido)butyl)boronic acid]: the IC50 is below 1000 nM.

Regarding `CC(C)C[C@H](NC(=O)C1(Cc2ccccc2)CC(CNC(=O)c2cocn2)=NO1)B(O)O` (stereo partly drawn) [Example 168, ((1R)-1-(5-benzyl-3-((oxazol-4-carboxamido)methyl)-4,5-dihydroisoxazol-5-carboxamido)-3-methylbutyl)boronic acid], the IC50 was below 25 nM.

In the case of `CC(C)C[C@H](NC(=O)C1(CC(C)C)CC(CNC(=O)c2nccc3ccccc23)=NO1)B(O)O` (stereo partly drawn) [Example 91, ((1R)-1-(5-isobutyl-3-((isoquinolin-1-carboxamido)methyl)-4,5-dihydroisoxazol-5-carboxamido)-3-methylbutyl)boronic acid], the IC50 was below 25 nM. The same measure for `CC(C)C[C@H](NC(=O)C1(Cc2c(F)cccc2F)CC(CNC(=O)c2nccc3ccccc23)=NO1)B(O)O` (stereo partly drawn) [Example 174, ((1R)-1-(5-(2,6-difluorobenzyl)-3-((isoquinolin-1-carboxamido)methyl)-4,5-dihydroisoxazol-5-carboxamido)-3-methylbutyl)boronic acid]: below 10 nM; for `CC(C)C[C@H](NC(=O)C1(Cc2cccc(Cl)c2)CC(CNC(=O)c2cc(C(C)C)on2)=NO1)B(O)O` (stereo partly drawn) [Example 223, ((1R)-1-(5-(3-chlorobenzyl)-3-((5-isopropylisoxazol-3-carboxamido)methyl)-4,5-dihydroisoxazol-5-carboxamido)-3-methylbutyl)boronic acid]: below 10 nM. To `CC(C)C[C@H](NC(=O)C1(Cc2ccccc2)CC(CNC(=O)c2cc3ccccc3cn2)=NO1)B(O)O` (stereo partly drawn) [Example 121, ((1R)-1-(5-benzyl-3-((isoquinolin-3-carboxamido)methyl)-4,5-dihydroisoxazol-5-carboxamido)-3-methylbutyl)boronic acid] belongs below 10 nM; to `CC(C)C[C@H](NC(=O)C1(Cc2ccccc2)CC(CNC(=O)c2cccc3nccn23)=NO1)B(O)O` (stereo partly shown) [Example 301], below 10 nM. The same measure for `Cc1nc(COCC2=NOC(Cc3ccccc3)(C(=O)N[C@@H](CC(C)C)B(O)O)C2)c(Cl)s1` (stereo partly drawn) [Example 50, ((1R)-1-(5-benzyl-3-(((5-chloro-2-methylthiazol-4-yl)methoxy)methyl)-4,5-dihydroisoxazol-5-carboxamido)-3-methylbutyl)boronic acid]: below 10 nM; for `CC(C)C[C@H](NC(=O)C1CC(CNC(=O)c2ccc3ccccc3c2)=NO1)B(O)O` (stereo partly drawn) [Example 69, [(1R)-3-methyl-1-[[3-[(naphthalen-2-carbonylamino)methyl]-4,5-dihydro-1,2-oxazol-5-carbonyl]amino]butyl]boronic acid]: below 25 nM; for `CC(C)[C@H](NC(=O)C1(Cc2ccccc2)CC(CNC(=O)c2cccn3ccnc23)=NO1)B(O)O` (stereo partly drawn) [Example 298, ((1R)-1-(5-benzyl-3-((imidazo[1,2-a]pyridin-8-carboxamido)methyl)-4,5-dihydroisoxazol-5-carboxamido)-2-methylpropyl)boronic acid]: below 10 nM. `COc1ccc(C(=O)NCC2=NOC(Cc3ccccc3)(C(=O)N[C@@H](CC(C)C)B(O)O)C2)cc1` (stereo partly shown) [Example 282]: the IC50 is below 10 nM. As for `CC(C)C[C@H](NC(=O)C1CC([C@H](CC(C)C)NC(=O)Cc2ccccc2)=NO1)B(O)O` (stereo partly drawn) [Example 105, ((1R)-3-methyl-1-(3-((S)-3-methyl-1-(2-phenylacetamido)butyl)-4,5-dihydroisoxazol-5-carboxamido)butyl)boronic acid], the IC50 was below 100 nM. In the case of `CC(C)C[C@H](NC(=O)C1(Cc2ccccc2)CC(CNC(=O)c2cc3ccccc3s2)=NO1)B(O)O` (stereo partly drawn) [Example 93, ((1R)-1-(3-((benzo[b]thiophen-2-carboxamido)methyl)-5-benzyl-4,5-dihydroisoxazol-5-carboxamido)-3-methylbutyl)boronic acid], the IC50 was below 10 nM.

For orientation: IC50 means the concentration needed to halve the response being measured.
